Read-outs that look alike come from different tables or passages of the source.

The IC50 is the point on the concentration scale where inhibition reaches its midpoint.

The subject of assay [1] is phosphorylation of Cdc2 Y15 (Wee1 substrate) in A427 cells. The assay is described as follows: Phosphorylated Cdc2 MSD Electrochemiluminescence Assay. The assay is classed as cell-based. The following applies: Homo sapiens. The essentials:
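Read-out: percent residual phospho-Cdc2 Y15 relative to DMSO and positive-control Wee1 inhibitor, measured by MSD electrochemiluminescence capture/detection antibody assay in cell lysates. A427 cells received duplicate 3-fold compound dilution series 20 h post-seeding, with 6 h total incubation at 37 °C.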

Another assay addresses T1, Wee1 kinase domain (Homo sapiens, UniProt P30291).
T1 construct: Wee1 kinase domain was purchased from Carna (catalog #05-177); purchased Carna 05-177
Description: Wee1 Kinase Biochemical Assay (ADP-Glo). The following applies: 15 uM ATP. In short, it runs like this: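 ADP-Glo detection of ADP produced after 4 h at 25° C by 1 nM Wee1 kinase domain on 2 ng/mL poly(Lys,Tyr 4:1) with 15 uM ATP. Buffer: 40 mM Tris-HCl, 20 mM MgCl2, 0.1 mg/mL BSA, 2 mM DTT. Inhibition is relative to DMSO (high) and saturating Wee1 inhibitor (low) controls.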

The mark [2] stands for this setting: A-427, class symbols, read-out: A427 pCDC2 MSD IC50.
The mark [3] stands for this setting: class symbols, 1 nM Wee1 enzyme, 4 hours at 25° C.

T1 sequence (P30291 299-569 limits assumed): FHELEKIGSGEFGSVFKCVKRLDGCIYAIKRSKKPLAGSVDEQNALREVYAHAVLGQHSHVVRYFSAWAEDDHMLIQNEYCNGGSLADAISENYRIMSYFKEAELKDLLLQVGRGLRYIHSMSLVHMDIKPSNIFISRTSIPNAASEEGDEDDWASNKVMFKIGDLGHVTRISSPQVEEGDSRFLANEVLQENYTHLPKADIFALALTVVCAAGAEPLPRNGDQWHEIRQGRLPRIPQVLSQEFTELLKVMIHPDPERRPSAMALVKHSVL

On to `C[C@H]1CN(c2ccc(Nc3ncc4c(n3)N(c3cccc(N=S(C)(C)=O)n3)[C@@H]3CC(C)(C)OC[C@]43C)cc2)CCN1C` (single isomer, unassigned) [Example 500], for which the IC50 in assay [1] (setting [2]) is less than 100 nM; against Wee1 kinase domain (setting [3]) it was less than 10 nM.

`CNCc1cccc(N2c3nc(Nc4ccc([C@H]5CCNC5)cc4)ncc3[C@@]3(C)COC(C)(C)C[C@@H]23)n1` (single isomer, unassigned) [Example 452]: the IC50 in assay [1] (setting [2]) is 100 to 1000 nM; against Wee1 kinase domain (setting [3]) it was less than 10 nM.

`CC1(C)C[C@H]2N(c3cccc(N4CCOC4=O)n3)c3nc(Nc4ccc(C5CNC5)cc4)ncc3[C@@]2(C)CO1` [Example 666, 3-(6-((4bR,8aR)-2-((4-(azetidin-3-yl)phenyl)amino)-4b,7,7-trimethyl-4b,7,8,8a-tetrahydropyrano[3′,4′:4,5]pyrrolo[2,3-d]pyrimidin-9(5H)-yl)pyridin-2-yl)oxazolidin-2-one]: the IC50 in assay [1] (setting [2]) is 100 to 1000 nM; at Wee1 kinase domain (setting [3]), less than 10 nM.

For `CN1CC(n2cc(Nc3ncc4c(n3)N(c3cccc(N=S(C)(C)=O)n3)[C@@H]3CC(C)(C)OC[C@]43C)cn2)C1` (single isomer, unassigned) [Example 207], the IC50 in assay [1] (A-427, pCDC2 MSD) is 100 to 1000 nM; on Wee1 kinase domain (Wee1 kinase domain, ADP-Glo) it was less than 10 nM.

With `C[C@H]1COC(=O)N1c1cccc(N2c3nc(Nc4ccc(N5CCCN(C)CC5)cc4)ncc3[C@@]3(C)COC(C)(C)C[C@@H]23)n1` (single isomer, unassigned) [Example 299], the IC50 was 100 to 1000 nM in assay [1] (A-427, pCDC2 MSD) and less than 10 nM against Wee1 kinase domain (Wee1 kinase domain, ADP-Glo).

Consider `CNCc1cccc(N2c3nc(Nc4cccc(N5CCOCC5)c4)ncc3[C@@]3(C)COC(C)(C)C[C@@H]23)n1` (single isomer, unassigned) [Example 470], for which the values for the half-maximal inhibitory concentration (IC50) (in assay [1] (setting [2]); on Wee1 kinase domain (setting [3])) were 100 to 1000 nM and less than 10 nM, respectively.

`[2H]C([2H])([2H])N1CCC(c2ccc(Nc3ncc4c(n3)N(c3cccc(N=S(C)(C)=O)n3)[C@@H]3CC(C)(C)OC[C@]43C)cc2)CC1` (single isomer, unassigned) [Example 162]: the IC50 in assay [1] (A-427, pCDC2 MSD) is less than 100 nM; against Wee1 kinase domain (Wee1 kinase domain, ADP-Glo) it was less than 10 nM.

Regarding `CN1CC[C@H](c2ccc(Nc3ncc4c(n3)N(c3cccc(N=S(C)(C)=O)n3)[C@@H]3CC(C)(C)OC[C@]43C)cc2)C1` (single isomer, unassigned) [Example 133], the IC50 in assay [1] (A-427, pCDC2 MSD) was 100 to 1000 nM; against Wee1 kinase domain (Wee1 kinase domain, ADP-Glo), less than 10 nM.

Consider `CNCc1cccc(N2c3nc(Nc4ccc(N5CCC(F)(F)CC5)cc4)ncc3[C@@]3(C)COC(C)(C)C[C@@H]23)n1` (single isomer, unassigned) [Example 16], for which the IC50 in assay [1] (A-427, pCDC2 MSD) was 100 to 1000 nM; at Wee1 kinase domain (Wee1 kinase domain, ADP-Glo), less than 10 nM.

As to `C[C@H]1COC(=O)N1c1cccc(N2c3nc(Nc4ccc(C5CN(C)C5)cc4)ncc3[C@@]3(C)COC(C)(C)C[C@@H]23)n1` (single isomer, unassigned) [Example 311], the IC50 in assay [1] (A-427, pCDC2 MSD) is 100 to 1000 nM; on Wee1 kinase domain (Wee1 kinase domain, ADP-Glo) it was less than 10 nM.

For `C[C@H]1COC(=O)N1c1cccc(N2c3nc(Nc4ccc(N5C[C@H]6C[C@@H](C5)N6C)cc4)ncc3[C@@]3(C)COC(C)(C)C[C@@H]23)n1` (single isomer, unassigned) [Example 352], the IC50 in assay [1] (A-427, pCDC2 MSD) was 100 to 1000 nM; on Wee1 kinase domain (Wee1 kinase domain, ADP-Glo), less than 10 nM.

Take `Cc1cc(Nc2ncc3c(n2)N(c2cccc(N4C(=O)OC[C@@H]4C)n2)[C@@H]2CC(C)(C)OC[C@]32C)ccc1N1C[C@H]2C[C@@H]1CN2C` (single isomer, unassigned) [Example 289]: the IC50 is 100 to 1000 nM in assay [1] (A-427, pCDC2 MSD) and less than 10 nM at Wee1 kinase domain (Wee1 kinase domain, ADP-Glo).

Consider `CN(C)Cc1cccc(N2c3nc(Nc4ccc(N5CCOCC5)cc4)ncc3[C@@]3(C)COC(C)(C)C[C@@H]23)n1` (single isomer, unassigned) [Example 523], for which the IC50 in assay [1] (setting [2]) is 100 to 1000 nM; on Wee1 kinase domain (setting [3]), less than 10 nM.

Turning to `CN1C[C@@H]2CN(c3ccc(Nc4ncc5c(n4)N(c4cccc(C(C)(C)O)n4)[C@@H]4CC(C)(C)OC[C@]54C)cc3)C[C@@H]2C1` (single isomer, unassigned) [Example 446], the IC50 is 100 to 1000 nM in assay [1] (setting [2]) and less than 10 nM against Wee1 kinase domain (setting [3]).

Consider `CN1CCN(c2ccc(Nc3ncc4c(n3)N(c3ccn(C5COC5)n3)[C@@H]3CC(C)(C)OC[C@]43C)cc2)CC1` (single isomer, unassigned) [Example 742], for which the figures for the IC50 (in assay [1] (setting [2]); at Wee1 kinase domain (setting [3])) were 1000 to 10000 nM and less than 10 nM, respectively.

In the case of `CNCc1cccc(N2c3nc(Nc4ccn([C@@H]5CCOC5)c(=O)c4)ncc3[C@@]3(C)COC(C)(C)C[C@@H]23)n1` (single isomer, unassigned) [Example 388], the IC50 was 100 to 1000 nM in assay [1] (A-427, pCDC2 MSD) and less than 10 nM against Wee1 kinase domain (Wee1 kinase domain, ADP-Glo).

As for `C[C@H]1COC(=O)N1c1cccc(N2c3nc(Nc4ccc([C@@]5(C)CCN(C)C5)cc4)ncc3[C@@]3(C)COC(C)(C)C[C@@H]23)n1` (single isomer, unassigned) [Example 349], the IC50 was 100 to 1000 nM in assay [1] (A-427, pCDC2 MSD) and less than 10 nM on Wee1 kinase domain (Wee1 kinase domain, ADP-Glo).

Consider `Cc1cc(Nc2ncc3c(n2)N(c2cccc(N4C(=O)OC[C@@H]4C)n2)[C@@H]2CC(C)(C)OC[C@]32C)ccc1[C@H]1CCNC1` (single isomer, unassigned) [Example 267], for which the IC50 in assay [1] (A-427, pCDC2 MSD) is 100 to 1000 nM; against Wee1 kinase domain (Wee1 kinase domain, ADP-Glo), less than 10 nM.

In the case of `CNCc1cccc(N2c3nc(Nc4ccc([C@H]5CCC(=O)N5C)cc4)ncc3[C@@]3(C)COC(C)(C)C[C@@H]23)n1` (single isomer, unassigned) [Example 54], the IC50 in assay [1] (A-427, pCDC2 MSD) is less than 100 nM; against Wee1 kinase domain (Wee1 kinase domain, ADP-Glo), less than 10 nM.

`CC1(C)C[C@H]2N(c3cccc(N=S(C)(C)=O)n3)c3nc(NC(=O)[C@H]4C[C@@H]4c4cccnc4)ncc3[C@@]2(C)CO1` (single isomer, unassigned) [Example 402]: the IC50 in assay [1] (setting [2]) fell in the range of 1000 to 10000 nM; on Wee1 kinase domain (setting [3]) it was 10 to 100 nM.

As to `C[C@H]1CCC(=O)N1c1cccc(N2c3nc(Nc4ccc(N5C[C@H]6C[C@@H](C5)N6C)cc4)ncc3[C@@]3(C)COC(C)(C)C[C@@H]23)n1` (single isomer, unassigned) [Example 748], the IC50 in assay [1] (setting [2]) is 100 to 1000 nM; against Wee1 kinase domain (setting [3]), less than 10 nM.

Regarding `Cn1cc(Nc2ncc3c(n2)N(c2cccc(N=S(C)(C)=O)n2)[C@@H]2CC(C)(C)OC[C@]32C)nn1` (single isomer, unassigned) [Example 514], the figures for the half-inhibitory concentration (IC50) (in assay [1] (setting [2]); against Wee1 kinase domain (setting [3])) were 100 to 1000 nM and less than 10 nM, respectively.

Regarding `CNCc1cccc(N2c3nc(Nc4ccc(C5CCOCC5)cc4)ncc3[C@@]3(C)COC(C)(C)C[C@@H]23)n1` (single isomer, unassigned) [Example 35], the IC50 in assay [1] (A-427, pCDC2 MSD) is 100 to 1000 nM; at Wee1 kinase domain (Wee1 kinase domain, ADP-Glo), less than 10 nM.

For the compound `CC1(C)C[C@H]2N(c3cccc(N=S(C)(C)=O)n3)c3nc(N)ncc3[C@@]2(C)CO1` (single isomer, unassigned) [Example 746], the IC50 in assay [1] (setting [2]) was 100 to 1000 nM; against Wee1 kinase domain (setting [3]), less than 10 nM.

As for `C[C@H]1COC(=O)N1c1cccc(N2c3nc(Nc4ccc([C@]5(C)CCN(C)C5)cc4)ncc3[C@@]3(C)COC(C)(C)C[C@@H]23)n1` (single isomer, unassigned) [Example 351], the IC50 in assay [1] (A-427, pCDC2 MSD) was less than 100 nM; against Wee1 kinase domain (Wee1 kinase domain, ADP-Glo) it was less than 10 nM.

Turning to `CN1CC[C@@H](Oc2ccc(Nc3ncc4c(n3)N(c3cccc(C(C)(C)O)n3)C3CC(C)(C)OCC43C)cc2)C1` (stereo in doubt) [Example 423, 2-(6-((4bR,8aR)-4b,7,7-trimethyl-2-((4-(((R)-1-methylpyrrolidin-3-yl)oxy)phenyl)amino)-4b,7,8,8a-tetrahydropyrano[3′,4′:4,5]pyrrolo[2,3-d]pyrimidin-9(5H)-yl)pyridin-2-yl)propan-2-ol], the values for the IC50 (in assay [1] (setting [2]); against Wee1 kinase domain (setting [3])) were 100 to 1000 nM and less than 10 nM, respectively.

For `CN1CCC[C@H]1c1cccc(N2c3nc(Nc4ccn(C5CCOCC5)c(=O)c4)ncc3[C@@]3(C)COC(C)(C)C[C@@H]23)n1` (single isomer, unassigned) [Example 393], the IC50 in assay [1] (A-427, pCDC2 MSD) was 1000 to 10000 nM; against Wee1 kinase domain (Wee1 kinase domain, ADP-Glo) it was less than 10 nM.

Consider `CNCc1cccc(N2c3nc(Nc4ccc(C5(C)COC5)cc4)ncc3[C@]3(C)COC(C)(C)C[C@H]23)n1` (single isomer, unassigned) [Example 82], for which the IC50 in assay [1] (A-427, pCDC2 MSD) was 100 to 1000 nM; on Wee1 kinase domain (Wee1 kinase domain, ADP-Glo), less than 10 nM.

As to `CN1CCC(n2ccc(Nc3ncc4c(n3)N(c3cccc(N=S(C)(C)=O)n3)[C@@H]3CC(C)(C)OC[C@]43C)cc2=O)CC1` [Example 152, 4-(((4bR,8aR)-9-(6-((dimethyl(oxo)-16-sulfaneylidene)amino)pyridin-2-yl)-4b,7,7-trimethyl-4b,5,7,8,8a,9-hexahydropyrano[3′,4′:4,5]pyrrolo[2,3-d]pyrimidin-2-yl)amino)-1-(1-methylpiperidin-4-yl)pyridin-2(1H)-one], the IC50 was 100 to 1000 nM in assay [1] (A-427, pCDC2 MSD) and less than 10 nM at Wee1 kinase domain (Wee1 kinase domain, ADP-Glo).

Consider `CNCc1cccc(N2c3nc(Nc4ccc(C(C)(C)C(=O)O)cc4)ncc3[C@@]3(C)COC(C)(C)C[C@@H]23)n1` (single isomer, unassigned) [Example 458], for which the IC50 in assay [1] (setting [2]) was 1000 to 10000 nM; on Wee1 kinase domain (setting [3]), less than 10 nM.

As for `CN1C[C@@H]2C[C@H]1CN2c1ccc(Nc2ncc3c(n2)N(c2cccc(P(C)(C)=O)n2)[C@@H]2CC(C)(C)OC[C@]32C)cc1` [Example 777, dimethyl(6-((4bR,8aR)-4b,7,7-trimethyl-2-((4-((1S,4S)-5-methyl-2,5-diazabicyclo[2.2.1]heptan-2-yl)phenyl)amino)-4b,7,8,8a-tetrahydropyrano[3′,4′:4,5]pyrrolo[2,3-d]pyrimidin-9(5H)-yl)pyridin-2-yl)phosphine oxide], the values for the IC50 (in assay [1] (setting [2]); against Wee1 kinase domain (setting [3])) were 1000 to 10000 nM and less than 10 nM, respectively.

Turning to `CNCc1cccc(N2c3nc(Nc4ccc(N5CCN(C)C(=O)C5)cc4)ncc3[C@@]3(C)COC(C)(C)C[C@@H]23)n1` (single isomer, unassigned) [Example 450], the IC50 in assay [1] (setting [2]) is 100 to 1000 nM; against Wee1 kinase domain (setting [3]), less than 10 nM.

(Values after patent publication US20260166039A1 (SCHRÖDINGER, INC., priority 2022, published 2026).)
